Measured values as given in patent EP3613735A1, “NOVEL SIRT 1 ACTIVATOR AND MEDICINAL USE THEREOF” (Pusan National University Industry - University Cooperation …, priority 2017, dated 2018).

Legend:
Format in all cases: in vivo, mouse
db/db mice = test: Neutral fat in the liver (fatty liver) in obese animal model; conditions: oral 5 mg/kg daily for 4 weeks
Experimental: Since obesity and insulin resistance are representative diseases directly related to the development of non-alcoholic fatty liver, the improvement effect of Compound 32u on fatty liver was analyzed. Compound 32u was orally administered to db/db mice (9 weeks old) at a concentration of 5 mg/kg daily for 4 weeks. First, the accumulation of fat in the liver, the most representative phenotype, was measured. Briefly, about 50 mg of liver was quantified in cold phosphate buffered saline (PBS) or 0.9% sodium chloride (NaCl) and crushed, followed by treating with mixed solvent of chloroform and methanol (MeOH) in a volume ratio of 2:1 and reacted for 2 hours. […] Thereafter, the amount of neutral fat was measured by absorbance using a neutral fat measurement kit (Stanbio laboratory, TX USA). Since obesity and insulin resistance are representative diseases directly related to the development of non-alcoholic fatty liver, the improvement effect of Compound 70c on fatty liver was analyzed. […] First, the accumulation of fat in the liver, the most representative phenotype, was measured. Briefly, about 50 mg of liver was quantified in cold phosphate buffered saline (PBS) or 0.9% sodium chloride (NaCl) and crushed, followed by treating with mixed solvent of chloroform and methanol (MeOH) in a volume ratio of 2:1 and reacted for 2 hours. […]

[1] = tested on: FASN, ACC, SREBP-1a, SREBP-1c and SREBP-2; test: Liver mRNA expression of fat synthesis genes, quantitative real-time PCR; conditions: db/db mice, oral 5 mg/kg daily for 4 weeks
Experimental: Since obesity and insulin resistance are representative diseases directly related to the development of non-alcoholic fatty liver, the improvement effect of Compound 32u on fatty liver was analyzed. Compound 32u was orally administered to db/db mice (9 weeks old) at a concentration of 5 mg/kg daily for 4 weeks. First, the accumulation of fat in the liver, the most representative phenotype, was measured. Briefly, about 50 mg of liver was quantified in cold phosphate buffered saline (PBS) or 0.9% sodium chloride (NaCl) and crushed, followed by treating with mixed solvent of chloroform and methanol (MeOH) in a volume ratio of 2:1 and reacted for 2 hours. […] Thereafter, the amount of neutral fat was measured by absorbance using a neutral fat measurement kit (Stanbio laboratory, TX USA). In order to confirm the corresponding mechanism, mRNA expression of genes related to fat synthesis and degradation was analyzed. […] For the synthesized cDNA, a quantative real-time polymerase chain reaction (quantative real-time PCR) was performed to target the desired gene as a primer and quantify it in real time. Since obesity and insulin resistance are representative diseases directly related to the development of non-alcoholic fatty liver, the improvement effect of Compound 70c on fatty liver was analyzed. […] First, the accumulation of fat in the liver, the most representative phenotype, was measured. […]

p-IRE = test: Liver endoplasmic reticulum stress marker, Western blot; conditions: db/db mice, oral treatment
Experimental: The cause of non-alcoholic liver disease (NAFLD) is unclear, but recent studies report that endoplasmic reticulum (ER) stress can be involved in fatty liver development and progression to non-alcoholic fatty hepatitis. Thus, in order to analyze the effect of Compound 32u on endoplasmic reticulum stress-related marker (p-IRE) was identified by Western blot. Briefly, about 50 mg of liver was quantified, homogenated and lysed to extract proteins. After quantifying the extracted protein and loading the same amount thereof in the polyacrylamide gel, the protein was separated according to molecular weight through SDS-PAGE (sodium dodecyl sulfate-polyacrylamide gel electrophoresis). Proteins separated according to molecular weight were transferred to a membrane by applying an electric field, and the desired protein was detected using a specific antibody. After reacting the primary antibody that specifically binds to the protein to be detected for at least 12 hours, the secondary antibody that specifically binds to the primary antibody is reacted for 1 hour, and the expression of the protein can be analyzed by treating the developer liquid containing the substrate HRP (horse radish peroxidase) present in the secondary antibody. […] Briefly, about 50 mg of liver was quantified, homogenated and lysed to extract proteins. […]

| Compound | neutral fat in the liver (db/db mice) | expression of fat synthesis genes (FASN, ACC, SREBP-1a, SREBP-1c and SREBP-2) [1] | protein expression of endoplasmic reticulum stress-related markers (p-IRE) (p-IRE) |
| --- | --- | --- | --- |
| Cl.O=C(Nc1ccccc1-c1cc2ccc(CN3CCNCC3)cc2o1)c1ccc2ccccc2c1 [Compound 32u, N-(2-(6-(Piperazin-1-ylmethyl)benzofuran-2-yl)phenyl)-2-naphthamide hydrochloride] | reduced neutral fat | significantly reduced | significantly reduced |
| O=C(Nc1ccccc1-c1nc2cc(CN3CCN(C4CCCCC4)CC3)ccc2o1)c1ccc2ccccc2c1 [Compound 70c, N-(2-(5-((4-Cyclohexylpiperazin-1-yl)methyl)benzo[d]oxazol-2-yl)phenyl)-2-naphthamide] | reduced neutral fat | significantly reduced | significantly reduced |
